Columns and labels:
[1] = tested on: A549 human lung carcinoma cells; experiment: Soft agar assay (anchorage independent growth), A549 cells; assay type: cell-based; details: single 24 hour treatment at 4 mM, colonies counted 21 days after plating
Protocol: (§1) For analysis of growth in soft agar, 3 ×10^3 cells were seeded in triplicate onto a six well dish in 4 ml of complete medium containing 0.33% agar solution at 37° C. (34). Cells were fed with 2 ml of medium twice weekly. The assay was performed in triplicate, and colonies were counted 21 days after plating for A549 cells, and 7 days after plating for HEK 293 cells.
(§2) AdoMetinhibits the tumorigenic properties of two different transformed cells lines, A549 human lung carcinoma cells and HEK 293 human embryonal kidney cells—It is well documented that a correlation exists between reduced intracellular AdoMet (either as a consequence of decreased folate intake or pharmacological intervention) and an increase in cell proliferation and tumorigenesis (2, 19). […] We therefore decided to test whether treatment with AdoMet could inhibit the transformation potential of HEK 293 cells, which were shown here to be responsive to AdoMet inhibition of demethylase. We also tested AdoMet effects on the transformed state of A549, a human lung non-small cell carcinoma cell line, to exclude the possibility that AdoMet effects are an idiosyncrasy of HEK 293 cells. Cells were treated for 24 hours with either AdoMet or AdoHcy at a concentration of 4 mM. An equal number of living cells were seeded onto soft agar to test their anchorage independent growth, an indicator of tumorigenesis in vitro. […]

[2] = tested on: HEK 293 human embryonal kidney cells; experiment: Soft agar assay (anchorage independent growth), HEK 293 cells; assay type: cell-based; details: single 24 hour treatment at 4 mM, colonies counted 7 days after plating
Protocol: as §1, §2

[3] = target: T1, human MBD2/dMTase (Homo sapiens, UniProt Q9UBB5); experiment: In vitro demethylation assay with recombinant MBD2/dMTase; assay type: biochemical; details: for conversion of methyl-dCMP to dCMP by MBD2/dMTase: 24 hours at 37° C.
T1 construct: made in house; host or cells: SF9 insect cells (baculovirus, transfer vector pBlueBacHis2 C)
Protocol: AdoMet preparations for in vitro studies—AdoMet was prepared as a 50 mM solution in distilled water either by freeze drying a 32 mM AdoMet solution, which contained 10% ethanol and 5 mM sulfuric acid (New England Biolabs) immediately before use or by dissolving lyophilized powder (SIGMA) in distilled water. To control for possible nonspecific effects of remnants of the AdoMet storage buffer we freeze dried a solution of 5 mM sulfuric acid and 10% ethanol under the same conditions as done with the AdoMet solution and added distilled water after lyophilizing. AdoHcy was purchased from SIGMA and dissolved in distilled water at a 50 mM concentration.
Purification of recombinant MBD2/dMTase from SF9 cells—A fragment containing human MBD2/dMTase was excised from pCR2.1-dMTase (10) with BamHI and XhoI and transferred to the Baculovirus expression transfer vector pBlueBacHis2 C (Invitrogen). PBlueBacHis2 C-MBD2/dMTase and Bac-N-Blue viral DNA were co-transfected into the SF9 insect cell line, and recombinant viruses were isolated, identified and amplified according to the manufacturer's protocol (Invitrogen) with no modifications. High titer P3 viral stocks were used for infections. Insect SF9 cells were cultured in spinner flasks to a density of 2.5×10^6 cells/ml in Grace's Insect Cell Culture Medium Supplemented (1×) from Life Technologies. For infection, 5×10^6 cells were plated in 10 cm tissue culture plates (Sarstedt) and allowed to settle and attach for 30 minutes. The culture medium was removed and was replaced with 10 ml of the same medium containing MBD2/dMTase virus at a multiplicity of infection of 10. The cells were cultured with the virus for 5 days at 27° C. and were then harvested by scraping in cold phosphate buffered saline. Cell pellets from 10 plates were frozen and kept at −70° C. until they were used for enzyme purification. Frozen pellets were thawed in 5 ml of lysis buffer (10 mM Tris-HCl pH 8.0, 5 mM MgCl2, 500 mM NaCl, 0.05% Tween 20, 10% glycerol and 10 mM imidazole) containing 1 μg/ml of the following protease inhibitors: aprotinin, leupeptin and pefablock. Protease inhibitors were added to all the solutions used in the purification. The homogenates were subjected to two cycles of freezing and thawing (5 minutes per step). DNA in the homogenate was sheered by passing through a 18.5 gauge needle 10 times. The extracts were then subjected to 15 cycles of sonication (10 seconds burst, 10 seconds gap per cycle at 20% of maximal output). The extracts were centrifuged at 10,000×g for 35 minutes. The supernatant was transferred into a fresh tube and was recentrifuged for additional 25 minutes at 15,000×g. The extract was filtered through a 5 micron filter to remove any particulate matter and the buffer was exchanged on a PD-10 buffer exchange column (Amersham Pharmacia) with buffer L (10 mM Tris-HCl pH 8.0, 10 mM MgCl2) containing 50 mM NaCl. Recombinant MBD2/dMTase was partially purified by Q-sepharose (Pharmacia) ion exchange chromatography. Q-sepharose beads (1 ml of swollen beads) were washed extensively and preequilibrated with buffer L containing 50 mM NaCl and divided into 3 equal aliquots. The cell extracts were sequentially bound three times to the 3 aliquots of Q-sepharose beads in batch in 15 ml tubes by shaking gently on a Nutator for 45 minutes at 4° C. […]

[4] = tested on: CMV-GFP expression in HEK 293 cells; experiment: GFP expression from transfected CMV-GFP in HEK 293 cells (Western blot); details: for TSA induced GFP expression of methylated CMV-GFP: 0.3 μM TSA, increasing amounts of compound (mM)
[5] = tested on: endogenous demethylase activity; experiment: Active demethylation of in vitro methylated CMV-GFP transiently transfected into HEK 293 cells (HpaII/MspI digestion, Southern blot); details: for percentage of methylated GFP remaining (inhibition of TSA induced active demethylation of methylated CMV-GFP): 0.3 μM TSA, 2, 4, 8 mM compound, harvested 72 hours post transfection

T1 sequence (Q9UBB5 150-411 limits assumed): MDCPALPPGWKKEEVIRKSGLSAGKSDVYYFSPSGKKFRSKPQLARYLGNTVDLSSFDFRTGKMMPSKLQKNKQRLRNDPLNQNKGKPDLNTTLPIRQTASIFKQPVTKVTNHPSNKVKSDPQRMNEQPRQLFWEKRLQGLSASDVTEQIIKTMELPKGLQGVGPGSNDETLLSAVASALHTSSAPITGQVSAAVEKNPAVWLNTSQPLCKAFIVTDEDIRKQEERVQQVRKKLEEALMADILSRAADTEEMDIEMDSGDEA

Row | Compound | colony formation in soft agar (anchorage independent growth) [1] | colony formation in soft agar (anchorage independent growth) [2] | effect of AdoHcy on inhibition of the demethylase reaction by AdoMet (competition experiment) ([3]; increasing AdoHcy in presence of 10 mM AdoMet, up to tenfold concentration excess of AdoHcy) | inhibition of demethylation activity of MBD2/dMTase ([3]; increasing concentrations of AdoHcy) | TSA induced GFP expression of methylated CMV-GFP ([4]; methylated CMV-GFP) | percentage of methylated GFP remaining (inhibition of TSA induced active demethylation of methylated CMV-GFP) ([5]; methylated CMV-GFP) | conversion of methyl-dCMP to dCMP by MBD2/dMTase ([3]; 2 mM AdoMet) | conversion of methyl-dCMP to dCMP by MBD2/dMTase ([3]; AdoMet concentrations higher than 4 mM) | inhibition of demethylation attained ([3]; maximum inhibition on dose curve, average of 3 independent experiments) | induction of non-methylated GFP by TSA ([4]; unmethylated CMV-GFP, 0.3 μM TSA plus AdoMet) | de novo methylation of unmethylated CMV-GFP ([5]; unmethylated CMV-GFP, 8 mM AdoMet) | GFP expression of methylated CMV-GFP ([4]; methylated CMV-GFP, TSA alone) | demethylation of methylated CMV-GFP by endogenous demethylase activity ([5]; methylated CMV-GFP, 0.3 μM TSA alone)
1 | Nc1ncnc2c1ncn2[C@@H]1O[C@H](CSCC[C@H](N)C(=O)O)[C@@H](O)[C@H]1O [AdoHcy, S-adenosylhomocysteine] | does not inhibit | does not inhibit | does not diminish inhibition | no inhibition | no significant effect | insignificant effect | – | – | – | – | – | – | –
2 | C[S+](CC[C@H](N)C(=O)[O-])C[C@H]1O[C@@H](n2cnc3c(N)ncnc32)[C@H](O)[C@@H]1O (some centres unmarked) [AdoMet, S-Adenosylmethionine] | no colonies are formed | only a minimal number of colonies | – | – | decreased in a dose dependent fashion | increases in a dose dependent manner | greatly reduced | abolished completely | 100% | no significant effect | does not get de novo methylated | – | –
3 | CC(/C=C/C(=O)NO)=C\[C@@H](C)C(=O)c1ccc(N(C)C)cc1 [TSA, Trichostatin A] | – | – | – | – | – | – | – | – | – | – | – | dramatic induction | nearly complete demethylation

From patent publication US20050003378A1, “Inhibitor of demethylase, antitumorigenic agent, and an in vitro assay for demethylase inhibitors” (priority 2002, published 2005)
